Usually % inhibition stands for the change of the read-out against control, counted positive when it falls.

Experimental findings from the supplement of paper PMC5579334 are described below.

The subject of assay [1] is HS-PSS. The assay is described as follows: drug sensitivity score (DSS, CellTiter-Glo viability, 72 h) (DSS (dimensionless)); higher = more sensitive; extreme values may be limits of the assay. The gist of the method: (§1)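 Viability of MPNST cell lines and primary human Schwann cells was read as CellTiter-Glo ATP luminescence after 72 h at 37 °C, 5% CO2, in 384-well plates seeded with 750–1000 cells per well. Each compound had been preprinted at five concentrations in 10-fold steps. Signals were scaled between vehicle and positive-control wells, duplicates averaged where present, and fitted with four-parameter logistic curves. Drug sensitivity score and relative IC50 (censored at the top concentration) come from those fits, and percent inhibition is taken at the top concentration.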
(ATP-based viability assays read luminescence as a measure of living cells.)

The test system of assay [2] is HS-Sch-2. The description is as above. Put shortly:
as §1

Assay [3] relates to HSC1 (primary human Schwann cells). The description is as above. The gist of the method: as §1
The subject of assay [4] is HSC2 (primary human Schwann cells). Described as above. Put shortly: as §1
Assay [5] has as its system S1507-2. The assay is described as above. Put shortly: as §1
Assay [6] deals with S462. Described as above. Put shortly: as §1
The test system of assay [7] is ST8814. Described as above. The gist of the method: as §1
For assay [8], the system named is STS26T. The description is as above. Put shortly: as §1
In assay [9] the test system is YST-1. Described as above. Put shortly: as §1
Assay [10] deals with HS-PSS. The assay is described as follows: drug sensitivity score (DSS, CellTox-Green cytotoxicity, 72 h) (DSS (dimensionless)); higher = more cytotoxic; extreme values may be limits of the assay. The gist of the method:
(§2)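 MPNST cell lines and primary human Schwann cells were grown for 72 h at 37 °C in 384-well plates containing five 10-fold compound dilutions. CellTox-Green, added before seeding at a final 1:1000 dilution, gave fluorescence from DNA released by disrupted cells, and signals were scaled to vehicle and positive-control wells. Curves were fitted with a four-parameter logistic model. Drug sensitivity score and relative IC50 come from these fits, with IC50 censored at the top concentration.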

For assay [11], the system named is HSC1 (primary human Schwann cells). The description is as above. Put shortly:
as §2

Assay [12] relates to HSC2 (primary human Schwann cells). The description is as above. The gist of the method: as §2
In assay [13] the test system is S1507-2. The assay is described as above. The gist of the method:
as §2

Assay [14] concerns ST8814. The assay is described as above. The gist of the method:
as §2

The test system of assay [15] is STS26T. The description is as above. Put shortly:
as §2

Assay [16] deals with HS-PSS. The assay is described as follows: % inhibition of CellTiter-Glo viability at highest tested concentration (72 h), relative to DMSO and benzethonium chloride controls; higher = more inhibition. The gist of the method: as §1
The test system of assay [17] is HS-Sch-2. The description is as above. The gist of the method: as §1
The subject of assay [18] is HSC1 (primary human Schwann cells). The description is as above. Put shortly: as §1
Assay [19] concerns HSC2 (primary human Schwann cells). The assay is described as above. The gist of the method:
as §1

The test system of assay [20] is S1507-2. The assay is described as above. Put shortly:
as §1

The test system of assay [21] is S462. Described as above. Put shortly: as §1
Assay [22] relates to ST8814. Described as above. Put shortly:
as §1

Assay [23] has as its system STS26T. The description is as above. Put shortly: as §1
Assay [24] has as its system YST-1. The description is as above. Put shortly: as §1

Molecules are shown by their SMILES. ± gives the standard deviation of the averaged measurements.

As to `CC(C)C[C@H](NC(=O)[C@@H](COC(C)(C)C)NC(=O)[C@H](Cc1ccc(O)cc1)NC(=O)[C@H](CO)NC(=O)[C@H](Cc1c[nH]c2ccccc12)NC(=O)[C@H](Cc1cnc[nH]1)NC(=O)[C@@H]1CCC(=O)N1)C(=O)N[C@@H](CCCNC(=N)N)C(=O)N1CCC[C@H]1C(=O)NNC(N)=O` [Goserelin] (max concentration tested 10000 nM), the drug sensitivity score is 0 in assay [1]; 0.06 in assay [2]; 0 in [3]; 0 in [4]; 0 in [5]; 0 in assay [6]. The drug sensitivity score in assay [7], in assay [8], in assay [9], in assay [10], in assay [11] and in [12] was 0 in each case. In addition, the drug sensitivity score was 0.454 ± 0.64 in [13], 0 in assay [14] and 0 in assay [15]. For the same compound, the “% inhibition” value in assay [16] is -4.24%; in [17] it was 11.2%; in [18] it was 6.11%; in [19], -4.29%; in assay [20] it was -0.69 ± 5%; in [21], 0.735 ± 5%. For the same compound, the “% inhibition” value in assay [22] was 4.22%; in assay [23], 7.86%; in assay [24], -0.8%.

On to `NC(=O)NO` [Hydroxyurea] (max concentration tested 100000 nM), for which the drug sensitivity score in assay [1] is 0; in assay [2], 0.56; in assay [3], 0.337; in assay [4], 0; in assay [5], 0; in assay [6], 0. The drug sensitivity score in [7], in assay [8], in [9], in assay [10], in assay [11] and in assay [12] was 0 in each case. Moreover, the drug sensitivity score in assay [13], in [14] and in assay [15] was 0 throughout. The “% inhibition” value in assay [16] was 9.89%; in assay [17], 20.8%; in assay [18], 16.3%; in [19], 9.58%; in assay [20], 5.18 ± 7.5%; in assay [21] it was -3.38 ± 4.4%. The “% inhibition” value is 3.1% in [22], 3.66% in [23] and 8.97% in assay [24].

On to `COc1cc2c(cc1-c1c(C)noc1C)ncc1[nH]c(=O)n([C@H](C)c3ccccn3)c12` [I-BET151] (max concentration tested 10000 nM), for which the drug sensitivity score in [1] came to 5.14; in assay [2] it was 7.97; in [3], 7.53; in assay [4], 7.44; in assay [5] it was 8.57 ± 0.91; in assay [6], 5.52 ± 1.1. In addition, the drug sensitivity score in assay [7] worked out at 7.98; in assay [8], 3.63; in assay [9], 7.27; in assay [10] it was 0; in [11] it was 0.0349; in [12] it was 0. The figures for the drug sensitivity score in assay [13], in [14] and in assay [15] were 6.26 ± 2.9, 3.3 and 0, respectively. The “% inhibition” value in [16] was 58.5%; in [17], 69.1%; in [18], 63.4%; in [19], 67.2%; in assay [20], 80.9 ± 2.5%; in assay [21], 54.1 ± 0.65%. Further, the “% inhibition” value in assay [22] was 69.7%; in [23] it was 39.3%; in assay [24], 63.4%.

On to `O=C(O)CNC(=O)c1c(O)c2ccccc2n(Cc2ccccc2)c1=O` [IOX-2] (max concentration tested 50000 nM), for which the drug sensitivity score was found to be 5.08 in assay [1]; 6.06 in assay [2]; 0 in assay [3]; 1.03 in [4]; 1.81 ± 1.5 in assay [5]; 0.3 ± 0.38 in [6]. Besides, the drug sensitivity score in assay [7] came out at 2.35; in assay [8], 0.326; in assay [9], 0.01; in assay [10] it was 0; in assay [11], 0; in [12] it was 0. Further, the drug sensitivity score in assay [13] is 0; in assay [14], 0.888; in assay [15], 0. For the same compound, the “% inhibition” value in [16] is 65%; in [17], 89%; in [18] it was 9.77%; in assay [19], 20.2%; in assay [20], 26.3 ± 12%; in assay [21], 12.2 ± 1.9%. The “% inhibition” value in assay [22] turned out to be 30.5%; in assay [23] it was 16.4%; in assay [24], 12%.

Regarding `C=CC(=O)N1CCC[C@@H](n2nc(-c3ccc(Oc4ccccc4)cc3)c3c(N)ncnc32)C1` [Ibrutinib] (max concentration tested 1000 nM), the drug sensitivity score in [1] stood at 1.17; in [2], 0; in [3] it was 0; in assay [4] it was 0; in assay [5] it was 0; in assay [6] it was 0. The drug sensitivity score in [7], in assay [8], in assay [9], in assay [10], in assay [11] and in assay [12] was 0 in each case. Moreover, the drug sensitivity score in assay [13], in assay [14] and in assay [15] was 0 in each case. The “% inhibition” value was 7.7% in [16]; 0.01% in assay [17]; -4.13% in assay [18]; -1.15% in assay [19]; -8.72 ± 4.8% in assay [20]; -0.0582 ± 2.1% in assay [21]. The “% inhibition” value in assay [22] was 2.81%; in assay [23], 2.46%; in assay [24], -1.93%.

In the case of `CC(=O)[C@]1(O)Cc2c(O)c3c(c(O)c2[C@@H](O[C@H]2C[C@H](N)[C@H](O)[C@H](C)O2)C1)C(=O)c1ccccc1C3=O` [Idarubicin] (max concentration tested 1000 nM), the drug sensitivity score in assay [1] is 10.1; in [2], 15.7; in assay [3], 18.1; in [4], 17.6; in assay [5] it was 17.1 ± 2.4; in assay [6] it was 23.5 ± 0.84. Also, the drug sensitivity score in assay [7] was found to be 16.2; in assay [8], 20.5; in assay [9], 24.2; in assay [10] it was 5.11; in [11], 8.63; in assay [12], 7.65. Moreover, the drug sensitivity score in [13] came out at 10.6 ± 0.28; in [14], 12.2; in assay [15] it was 15.8. The “% inhibition” value worked out at 92.3% in assay [16]; 102% in assay [17]; 94.9% in assay [18]; 95.5% in [19]; 95.7 ± 1.7% in assay [20]; 99.5 ± 0.8% in assay [21]. Further, the “% inhibition” value in assay [22] was 88%; in assay [23], 97.8%; in [24], 101%.
